Laboratory results published in patent US20230286969A1, “AROMATIC SPIRO RING AMIDE DERIVATIVES FOR THE TREATMENT AND PROPHYLAXIS OF HEPATITIS B VIRUS INFECTION” (Hoffmann-La Roche Inc., priority 2020, published 2023).
Read-outs that look alike come from different tables or passages of the source.

Legend:
Type in all cases: cell-based
[1] = test system: HBeAg; test: PHH HBV natural infection assay, HBeAg (alphalisa)
Method in brief: (§1)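 Primary human hepatocytes infected with HBV at 200 GE/cell plus 4% PEG8000 for 24 h, then sandwich-cultured 72 h. Compounds were added in two refreshes 72 h apart. HBsAg and HBeAg in supernatant measured by AlphaLISA.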

[2] = test system: HBsAg; test: PHH HBV natural infection assay, HBsAg (alphalisa)
Method in brief: as §1

[3] = test system: primary human hepatocyte (PHH); test: PHH natural infection assay, cytotoxicity (Cell Counting Kit-8); conditions: HBV-infected primary human hepatocytes, CCK8, end of treatment
Method in brief: (§2)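 HBV-infected at 200 GE/cell with 4% PEG8000 for 24 h, then sandwich-cultured 72 h in 1% DMSO and 0.25 mg/mL matrix gel. Compound added twice at 72-h intervals; supernatant HBsAg and HBeAg read by AlphaLISA, HBV DNA by quantitative fluorescence PCR kit. Cytotoxicity by CCK-8.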

[4] = as above; conditions: human, HBV-infected primary human hepatocytes, CCK8, end of treatment
Method in brief: as §2

[5] = read-out: HbeAg IC50, HBV-infected primary human hepatocytes, supernatant, compound medium refreshed two times with 72-hour interval
[6] = read-out: HBsAg IC50, HBV-infected primary human hepatocytes, supernatant, compound medium refreshed two times with 72-hour interval
[7] = Hepatitis B virus, Hepatocyte, 72 h, read-out: HbeAg IC50, HBV-infected primary human hepatocytes, supernatant, compound medium refreshed two times with 72-hour interval
[8] = Hepatitis B virus, Hepatocyte, 72 h, read-out: HBsAg IC50, HBV-infected primary human hepatocytes, supernatant, compound medium refreshed two times with 72-hour interval

| Compound | IC50 [1, 5] | IC50 [2, 6] | CC50 [3] | IC50 [1, 7] | IC50 [2, 8] | CC50 at 144 h [4] |
| --- | --- | --- | --- | --- | --- | --- |
| N=S(=O)(CC1CC1)c1ccc(C(=O)NC2CC3(C2)CC(c2nc4cc(Cl)ccc4o2)C3)o1 (single isomer, unassigned) [Example 54-a, N-[6-(5-chloro-1,3-benzoxazol-2-yl)spiro[3.3]heptan-2-yl]-5-(cyclopropylmethylsulfonimidoyl)furan-2-carboxamide] | 5.7 µM | 6.06 µM | > 10 µM |  |  |  |
| N=S(=O)(c1ccc(C(=O)NC2CC3(C2)CC(c2nc4cc(Cl)cnc4o2)C3)o1)C1CC1 (single isomer, unassigned) [Example 64-d, N-[6-(6-chlorooxazolo[5,4-b]pyridin-2-yl)spiro[3.3]heptan-2-yl]-5-(cyclopropylsulfonimidoyl)furan-2-carboxamide] |  |  | > 10 µM |  |  |  |
| CNS(=O)(=O)c1ccc(C(=O)NC2CC3(C2)CC(c2nc4cc(Cl)ccc4o2)C3)o1 (stereo not shown) [Example 88, N-[6-(5-chloro-1,3-benzoxazol-2-yl)spiro[3.3]heptan-2-yl]-5-(methylsulfamoyl)furan-2-carboxamide] |  |  |  | 0.687 µM | 1 µM | > 10 µM |
| O=C(NC1CC2(C1)CC(c1nc3cnc(Cl)cc3o1)C2)c1ccc(S(=O)(=O)C2CC2)o1 (stereo not shown) [Example 51, N-[6-(6-chlorooxazolo[4,5-c]pyridin-2-yl)spiro[3.3]heptan-2-yl]-5-cyclopropylsulfonyl-furan-2-carboxamide] |  |  |  | 1.15 µM | 1.8 µM | > 100 µM |
| NS(=O)(=O)c1ccc(C(=O)NC2CC3(C2)CC(c2nc4cc(Cl)ccc4o2)C3)o1 (stereo not shown) [Example 29, N-[6-(5-chloro-1,3-benzoxazol-2-yl)spiro[3.3]heptan-2-yl]-5-sulfamoyl-furan-2-carboxamide] |  |  |  | 0.509 µM | 0.534 µM | 94.2 µM |
| COCCOCC(=O)NS(=O)(=O)c1ccc(C(=O)N[C@H]2CC3(C2)C[C@H](c2nc4cc(Cl)ccc4o2)C3)o1 (single isomer, unassigned) [Example 78, (Sa)—N-[6-(5-chloro-1,3-benzoxazol-2-yl)spiro[3.3]heptan-2-yl]-5-[[2-(2-methoxyethoxy)acetyl]sulfamoyl]furan-2-carboxamide, or (Ra)—N-[6-(5-chloro-1,3-benzoxazol-2-yl)spiro[3.3]heptan-2-yl]-5-[[2-(2-methoxyethoxy)acetyl]sulfamoyl]furan-2-carboxamide] |  |  |  | 0.929 µM | 2.45 µM | > 100 µM |
| CS(=N)(=O)c1ccc(C(=O)NC2CC3(C2)CC(c2nc4cc(Cl)cnc4o2)C3)o1 (stereo not shown) [Example 63, N-[6-(6-chlorooxazolo[5,4-b]pyridin-2-yl)spiro[3.3]heptan-2-yl]-5-(methylsulfonimidoyl)furan-2-carboxamide] |  |  |  | 4.94 µM | 6.69 µM | > 100 µM |
| N=S(=O)(c1ccc(C(=O)NC2CC3(C2)CC(c2nc4cc(Cl)cnc4o2)C3)o1)C1CC1 (stereo not shown) [Example 64, N-[6-(6-chlorooxazolo[5,4-b]pyridin-2-yl)spiro[3.3]heptan-2-yl]-5-(cyclopropylsulfonimidoyl)furan-2-carboxamide] |  |  |  | 2.33 µM | 2.93 µM | > 100 µM |
| O=C(NC1CC2(C1)CC(c1nc3cc(Cl)ccc3o1)C2)c1ccc(S2(=O)=NCCCC2)o1 (stereo not shown) [Example 62, N-[6-(5-chloro-1,3-benzoxazol-2-yl)spiro[3.3]heptan-2-yl]-5-(1-oxo-1lambda6-thia-2-azacyclohexen-1-yl)furan-2-carboxamide] |  |  |  | 4.85 µM | 5.01 µM | > 100 µM |
| O=C(NC1CC2(C1)CC(c1nc3cc(Cl)ccc3o1)C2)c1ccc(S(=O)(=O)NC(=O)C2CCCCC2)o1 (stereo not shown) [Example 82, N-[6-(5-chloro-1,3-benzoxazol-2-yl)spiro[3.3]heptan-2-yl]-5-(cyclohexanecarbonylsulfamoyl)furan-2-carboxamide] |  |  |  | 0.224 µM | 0.461 µM | 85.7 µM |
| O=C(NC1CC2(C1)CC(c1nc3cc(Cl)ccc3o1)C2)c1occc1Br (stereo not shown) [Example 5, 3-bromo-N-[6-(5-chloro-1,3-benzoxazol-2-yl)spiro[3.3]heptan-2-yl]furan-2-carboxamide] |  |  |  | 6.29 µM | 8.19 µM | 73.2 µM |
| O=C(NC1CC2(C1)CC(c1nc3cc(Cl)ccc3o1)C2)c1ccc(C(=O)C2CC2)o1 (stereo not shown) [Example 10, N-[6-(5-chloro-1,3-benzoxazol-2-yl)spiro[3.3]heptan-2-yl]-5-(cyclopropanecarbonyl)furan-2-carboxamide] |  |  |  | 2.94 µM | 3.35 µM | 96.1 µM |
| CCOC(=O)NS(=O)(=O)c1ccc(C(=O)N[C@H]2CC3(C2)C[C@H](c2nc4cc(Cl)ccc4o2)C3)o1 (single isomer, unassigned) [Example 74, (Sa)-ethyl N-[[5-[[6-(5-chloro-1,3-benzoxazol-2-yl)spiro[3.3]heptan-2-yl]carbamoyl]-2-furyl]sulfonyl]carbamate, or (Ra)-ethyl N-[[5-[[6-(5-chloro-1,3-benzoxazol-2-yl)spiro[3.3]heptan-2-yl]carbamoyl]-2-furyl]sulfonyl]carbamate] |  |  |  | 5.92 µM | 6.67 µM | > 10 µM |
| O=C(NC1CC2(C1)CC(c1nc3cc(Cl)ccc3o1)C2)c1ccc(SC(F)(F)F)o1 (stereo not shown) [Example 41, N-[6-(5-chloro-1,3-benzoxazol-2-yl)spiro[3.3]heptan-2-yl]-5-(trifluoromethylsulfanyl)furan-2-carboxamide] |  |  |  | 6.62 µM | 8.47 µM | > 100 µM |
| CS(=N)(=O)c1ccc(C(=O)NC2CC3(C2)CC(c2nc4cc(Cl)ccc4o2)C3)o1 (single isomer, unassigned) [Example 52-a, N-[6-(5-chloro-1,3-benzoxazol-2-yl)spiro[3.3]heptan-2-yl]-5-(methylsulfonimidoyl)furan-2-carboxamide] | 1.77 µM | 4.26 µM |  |  |  | > 100 µM |
| O=C(NC1CC2(C1)CC(c1nc3cc(Cl)ccc3o1)C2)c1ccc(S(=O)(=O)NC(=O)C2CCS(=O)(=O)C2)o1 (stereo not shown) [Example 84, N-[6-(5-chloro-1,3-benzoxazol-2-yl)spiro[3.3]heptan-2-yl]-5-[(1,1-dioxothiolane-3-carbonyl)sulfamoyl]furan-2-carboxamide] |  |  |  | 6.32 µM | 9 µM | > 10 µM |
| O=C(NC1CC2(C1)CC(c1nc3ccc(F)cc3o1)C2)c1ccc(C(F)(F)F)o1 (stereo not shown) [Example 47, N-[6-(6-fluoro-1,3-benzoxazol-2-yl)spiro[3.3]heptan-2-yl]-5-(trifluoromethyl)furan-2-carboxamide] |  |  |  | 10.6 µM | 9.59 µM | > 100 µM |
| O=C(NC1CC2(C1)CC(c1nc3cc(Cl)ccc3o1)C2)c1ccc(S(=O)(=O)CC2CN(C(=O)OCc3ccccc3)C2)o1 (stereo not shown) [Example 26, benzyl 3-[[5-[[6-(5-chloro-1,3-benzoxazol-2-yl)spiro[3.3]heptan-2-yl]carbamoyl]-2-furyl]sulfonylmethyl]azetidine-1-carboxylate] |  |  |  | 0.329 µM | 0.365 µM | > 100 µM |
| O=C(NC1CC2(C1)CC(c1nc3cc(Cl)ccc3o1)C2)c1cc(Br)co1 (stereo not shown) [Example 4, 4-bromo-N-[6-(5-chloro-1,3-benzoxazol-2-yl)spiro[3.3]heptan-2-yl]furan-2-carboxamide] |  |  |  | 2.94 µM | 5.57 µM | 56 µM |
